Common to all, as to details: average where tested multiple times
For assay [1], the target named is T1, BCAT2 (Homo sapiens, UniProt O15382).
T1 sequence (O15382 28-392): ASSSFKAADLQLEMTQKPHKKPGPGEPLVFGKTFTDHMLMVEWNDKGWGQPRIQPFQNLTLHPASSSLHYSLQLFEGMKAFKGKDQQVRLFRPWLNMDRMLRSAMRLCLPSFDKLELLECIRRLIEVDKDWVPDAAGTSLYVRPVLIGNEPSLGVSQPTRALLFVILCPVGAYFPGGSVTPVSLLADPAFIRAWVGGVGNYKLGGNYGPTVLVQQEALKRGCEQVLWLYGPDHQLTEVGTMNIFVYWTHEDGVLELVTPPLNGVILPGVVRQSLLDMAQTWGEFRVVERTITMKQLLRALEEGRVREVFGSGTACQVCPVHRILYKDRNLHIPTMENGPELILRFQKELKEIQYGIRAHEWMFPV
Description: BCAT2 in vitro cell inhibition using engineered A549 cells (KMV cell assay, 13C6-KMV by LC-MS/MS). The assay is classed as cell-based. Set-up: The result was an engineered A549 cell line that expressed endogenous BCAT2; endogenous in cells; host or cells: A549 cells with MUT and BCAT1 knocked out by CRISPR/CAS9; key to BCAT2 Cell Inhibition: A: less than or equal to 0.100 μM; B: greater than 0.100 and less than or equal to 0.500 μM; C: greater than 0.500 and less than or equal to 1.000 μM; d: greater than 1.000 μM; E: no fit.

Assay [2] has as its target T1, BCAT2. As to the kind of experiment: BCAT2 in vitro enzyme inhibition assay (resazurin/diaphorase-coupled fluorescence). The assay is classed as biochemical. The method in brief:
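Coupled fluorescence readout: glutamate formed from L-leucine/α-ketoglutarate transamination drives GDH/NAD/diaphorase reduction of resazurin (Ex 540/Em 590). Human BCAT2 was first exposed 1 h at room temperature to compound, top final 100 μM in 3-fold, 10-point series; substrate reaction ran 1 h before SDS quench, in technical duplicate with DMSO max and enzyme-free min controls.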

The next assay deals with T2, hBCAT1 (Homo sapiens, UniProt P54687).
T2 sequence (P54687 1-386): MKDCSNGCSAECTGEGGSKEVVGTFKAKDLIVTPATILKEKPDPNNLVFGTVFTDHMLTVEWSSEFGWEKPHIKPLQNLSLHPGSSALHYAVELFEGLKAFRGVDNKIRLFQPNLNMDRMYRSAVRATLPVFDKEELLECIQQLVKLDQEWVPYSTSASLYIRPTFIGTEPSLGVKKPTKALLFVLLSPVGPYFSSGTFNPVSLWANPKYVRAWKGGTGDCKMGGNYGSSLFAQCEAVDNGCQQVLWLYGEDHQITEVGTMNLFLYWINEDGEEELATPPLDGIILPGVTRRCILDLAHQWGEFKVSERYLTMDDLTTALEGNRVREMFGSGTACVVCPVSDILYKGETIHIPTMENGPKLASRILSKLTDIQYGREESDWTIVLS
Description: BCAT1 in vitro enzyme inhibition assay (resazurin/diaphorase-coupled fluorescence). The assay is classed as biochemical. The method in brief: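 Ten-point, 3-fold compound series (top final 100 μM, delivered 1:50 from 50× DMSO stocks) tested against hBCAT1. Inhibition detected via diaphorase-coupled resazurin fluorescence, duplicate wells, with values from repeated runs averaged.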
For orientation: Resazurin is reduced to fluorescent resorufin, in cell work by metabolically active cells.

A value given as a limit tells only on which side of the number the result lay.

Broadly, the IC50 is the point on the concentration scale where inhibition reaches its midpoint. As to `O=C(NC1CCCC(n2c(-c3ncccc3F)nc3cnc(-c4ccccn4)cc32)C1O)c1ncc(Cl)s1` (stereo not drawn) [Example 220, 5-chloro-N-(3-(2-(3-fluoropyridin-2-yl)-6-(pyridin-2-yl)-1H-imidazo[4,5-c]pyridin-1-yl)-2-hydroxycyclohexyl)thiazole-2-carboxamide], the half-inhibitory concentration (IC50) against BCAT2 [1] was not above 100 nM; against BCAT2 [2], not above 100 nM; against hBCAT1, less than 500 nM.
In the case of `O=C(N[C@@H]1C[C@@H](O)C[C@H](n2c(-c3ccccc3F)nc3cnc(-n4nccn4)cc32)C1)c1ncc(C(F)F)s1` (single isomer, unassigned) [Example 107], the IC50 against BCAT2 [1] is 500 to 1000 nM; on BCAT2 [2] it was 100 to 500 nM; on hBCAT1, less than 500 nM.
The corresponding values for `CC(=O)N1CC(NC(=O)c2ncc(C(F)F)s2)CC(n2c(-c3ccccc3F)nc3cnc(-n4nccn4)cc32)C1` (stereo not drawn) [Example 123, N-(1-acetyl-5-(2-(2-fluorophenyl)-6-(2H-1,2,3-triazol-2-yl)-1H-imidazo[4,5-c]pyridin-1-yl)piperidin-3-yl)-5-(difluoromethyl)thiazole-2-carboxamide] are not above 100 nM, not above 100 nM and less than 500 nM.
For the compound `O=C(NC1COCC(n2c(-c3ccccc3F)nc3cnc(-n4nccn4)cc32)C1)c1ncc(C(F)F)s1` (single isomer, unassigned) [Example 143, 5-(difluoromethyl)-N-(5-(2-(2-fluorophenyl)-6-(2H-1,2,3-triazol-2-yl)-1H-imidazo[4,5-c]pyridin-1-yl)tetrahydro-2H-pyran-3-yl)thiazole-2-carboxamide], the half-inhibitory concentration (IC50) against BCAT2 [1] was 100 to 500 nM; against BCAT2 [2], 100 to 500 nM; on hBCAT1, more than 5000 nM.
As for `O=C(N[C@H]1CCC[C@@H](n2c(-c3ncccc3F)nc3cnc(N4CCCC4=O)cc32)C1)c1ncc(C(F)F)s1` [Example 49, 5-(difluoromethyl)-N-((1S,3R)-3-(2-(3-fluoropyridin-2-yl)-6-(2-oxopyrrolidin-1-yl)-1H-imidazo[4,5-c]pyridin-1-yl)cyclohexyl)thiazole-2-carboxamide], on BCAT2 [1], the “BCAT2 Cell Inhibition” value was “E”. Further, the IC50 at BCAT2 [2] was 100 to 500 nM; against hBCAT1, more than 5000 nM.
For `N#CCc1ccccc1-c1nc2cnc(-c3nc[nH]n3)cc2n1[C@@H]1CCC[C@H](NC(=O)c2ncc(Cl)s2)C1` [Example 355, 5-chloro-N-((1S,3R)-3-(2-(2-(cyanomethyl)phenyl)-6-(1H-1,2,4-triazol-3-yl)-1H-imidazo[4,5-c]pyridin-1-yl)cyclohexyl)thiazole-2-carboxamide], the IC50 was not above 100 nM at BCAT2 [1], not above 100 nM on BCAT2 [2] and less than 500 nM on hBCAT1.
For the compound `CC(=O)N1CC(NC(=O)c2ncc(C(F)F)s2)CC(n2c(-c3ccccn3)nc3cnc(-n4ccnn4)cc32)C1` (stereo not drawn) [Example 122, N-(1-acetyl-5-(2-(pyridin-2-yl)-6-(1H-1,2,3-triazol-1-yl)-1H-imidazo[4,5-c]pyridin-1-yl)piperidin-3-yl)-5-(difluoromethyl)thiazole-2-carboxamide], the “BCAT2 Cell Inhibition” value on BCAT2 [1] was “E”. Moreover, the IC50 was 100 to 500 nM on BCAT2 [2] and more than 5000 nM against hBCAT1.
On to `CC(C)Cc1nc2cnc(-c3ncns3)cc2n1[C@@H]1CCC[C@H](NC(=O)c2ncc(Cl)s2)C1` [Example 328, 5-chloro-N-((1S,3R)-3-(2-isobutyl-6-(1,2,4-thiadiazol-5-yl)-1H-imidazo[4,5-c]pyridin-1-yl)cyclohexyl)thiazole-2-carboxamide], for which the IC50 was more than 1000 nM at BCAT2 [1], 100 to 500 nM on BCAT2 [2] and more than 5000 nM at hBCAT1.
For the compound `Cc1coc(-c2cc3c(cn2)nc(CC(C)C)n3[C@@H]2CCC[C@H](NC(=O)c3ncc(Cl)s3)C2)n1` [Example 306, 5-chloro-N-((1S,3R)-3-(2-isobutyl-6-(4-methyloxazol-2-yl)-1H-imidazo[4,5-c]pyridin-1-yl)cyclohexyl)thiazole-2-carboxamide], the 50% inhibitory concentration (IC50) at BCAT2 [1] is 100 to 500 nM; on BCAT2 [2], not above 100 nM; at hBCAT1 it was 500 to 1000 nM.

Values taken from patent publication US20260159512A1, “BCAT2 INHIBITORS” (AGIOS PHARMACEUTICALS, INC., priority 2021, published 2026).
